The test system of test [1] is Ramos (Burkitt's lymphoma) cells. Briefly: Trypan blue exclusion cell viability assay. In kind it is cell-based, human. The settings on record: 24 hours, compared with L0 and CEM cells. Here is the method: (§1) Cell viability assay. B and T cell viability was measured using the trypan blue exclusion method. Cells were grown in confluency conditions (2×10^6 cells/mL maximum) assuring the minimum basal apoptosis. […] Cell viability was quantified using the TC10™ automated cell counter (Biorad).
(§2) The drugs were dissolved in DMSO to make 100× stock solutions for each concentration tested, so that the final volume of DMSO in each well was 1%.
(§3) Cell viability was then quantified using the TC10™ automated cell counter (Biorad).

Test [2] concerns BL-2 (Burkitt's lymphoma) cells. The test can be described thus: Trypan blue exclusion cell viability assay. In kind it is cell-based, human. The conditions noted are these: BL-2, 24 hours, compared with L0 and CEM cells. Here is the method: as §1, §2, §3
The target in test [3] is T1, NMT1 (Homo sapiens, UniProt P30419).
T1 construct: We generated His-tagged full-length (His-NMT1 and His-NMT2) and caspase truncated (His-73NMT1, His-26NMT2 and His-68NMT2) human NMT vectors; His6 (N); made in house; host or cells: E. coli Lemo21(DE3) pLysS
T1 sequence (P30419 whole entry, the tested form may be a part): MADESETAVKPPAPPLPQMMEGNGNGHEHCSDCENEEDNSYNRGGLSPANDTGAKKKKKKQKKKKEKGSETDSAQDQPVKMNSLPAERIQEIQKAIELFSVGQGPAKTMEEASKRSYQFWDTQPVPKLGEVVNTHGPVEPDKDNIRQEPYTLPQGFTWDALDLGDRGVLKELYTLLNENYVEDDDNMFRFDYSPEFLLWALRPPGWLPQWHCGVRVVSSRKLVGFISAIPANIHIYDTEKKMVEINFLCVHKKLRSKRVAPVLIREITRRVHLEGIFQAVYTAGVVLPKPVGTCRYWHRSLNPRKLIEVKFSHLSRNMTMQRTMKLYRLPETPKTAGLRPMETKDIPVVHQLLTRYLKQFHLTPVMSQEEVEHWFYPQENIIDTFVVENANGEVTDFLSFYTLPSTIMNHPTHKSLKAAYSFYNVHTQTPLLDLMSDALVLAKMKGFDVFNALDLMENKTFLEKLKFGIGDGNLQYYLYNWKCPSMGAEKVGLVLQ
The test can be described thus: In vitro NMT activity (peptide myristoylation) assay. The format is biochemical. The text has this:
(§4) In vitro NMT activity assay. N-myristoyltransferase activity assay protocol was adapted from Raju, R. V., and Sharma, R. K. (1999) Preparation and assay of myristoyl-CoA:protein N-myristoyltransferase. Methods Mol Biol 116, 193-211. [^3H] myristoyl-CoA was freshly synthesized for each experiment, as previously described by Towler, D., and Glaser, L. (1986) Protein fatty acid acylation: enzymatic synthesis of an N-myristoylglycyl peptide. Proc Nat Acad Sci USA 83, 2812-2816. Briefly, cells were resuspended in 0.25 M sucrose buffer (50 mM NaH2PO4, pH 7.4) and subjected to 2 rounds of sonication at level 6.0 on a Branson Sonicator. Reaction mixture is composed of 10 μL of cell extract (about 20 μg of proteins) incubated in NMT activity buffer (0.26M Tris-HCl, 3.25 mM EGTA, 2.92 mM EDTA and 29.25 mM 2-mercaptoethanol, 1% Triton X-100, pH 7.4) and myristoylable or non-myristoylable decapeptide corresponding to the N-terminal sequence of truncated-Bid (0.1 mM dissolved in water). Reaction was started by the addition of 7.4 μL (≈10 pMol) of freshly synthesized [^3H] myristoyl-CoA (final mixture volume=25 μL) and incubated for 15 min at 30° C. The reaction is stopped by spotting 15 μL of the reaction mixture on a P81 phosphocellulose paper disc (Whatman, Kent, UK) and dried for 30 seconds. Discs were washed (washing buffer: 25 mM Tris buffer, pH 7.4) to remove the residual radioactivity ([^3H]-myristate and [^3H]-myristoyl-CoA) while [^3H]-myristoyl-peptide is retained on the phosphocellulose paper. Radioactivity was quantified by liquid scintillation counting and converted into pMol of myristoylated peptide (Raju, R. V., and Sharma, R. K. (1999) Preparation and assay of myristoyl-CoA:protein N-myristoyltransferase. Methods Mol Biol 116, 193-211
(§5) NMT activity was assayed using a peptide myristoylation assay with purified recombinant NMT1 and NMT2. NMT activity was calculated from the amount of radiolabeled myristoylpeptide produced and detected on phosphocellulose paper (adapted from King et al. 1991, Anal Biochem.).
(§6) In this example, in FIG. 10, the sensitivity of various immortalized normal LO B lymphocytes (obtained from Dr. Riabowol, U. of Calgary), malignant B lymphoma cells (Ramos and BL2), and, T cell leukemia (CEM) is shown to the NMT inhibitor TrisDBA for 24 hours (A) Residual viability of various cell lines treated with TrisDBA for 24 hours (n=9) (B) Effect of TrisDBA on N-myristoyltransferase activity in COS7 cells transiently expressing NMT1 or NMT2 incubated for 24 h with TrisDBA. In vitro the IC50 for TrisDBA is approximately 2 μM for NMT1 and 5 μM for NMT2.

Test [4] concerns the target T2, NMT2 (Homo sapiens, UniProt O60551).
T2 construct: We generated His-tagged full-length (His-NMT1 and His-NMT2) and caspase truncated (His-73NMT1, His-26NMT2 and His-68NMT2) human NMT vectors; His6 (N); made in house; host or cells: E. coli Lemo21(DE3) pLysS
The test is described as above. The format is biochemical.
Text: as §4, §5, §6

Test [5] has as its system Ramos B lymphoma cells transfected with pcDNA3.1-V5-NMT2. Briefly: Survival of NMT2-transfected Ramos cells, trypan blue exclusion. In kind it is cell-based, human. The settings on record: TrisDBA 5 ug/ml, 24 hours. Here is the method: as §1
In test [6] the test system is NMT1 levels in IM9, Ramos, BL2 cells. Briefly: Western blot of protein levels after SAHA treatment. In kind it is cell-based, human. The conditions noted are these: 1 μM, 24 h. Here is the method: (§7) IM9, BL2 and Ramos cells were plated at 3×10^6 cells per well in a 6-well dish and treated with 1 μM suberoylanilide hydroxamic acid (SAHA), which is a reversible inhibitor of class I and class II histone deacetylases (HDACs), for 24 hours. Equal amount of DMSO was added to cells as a control. Cells were lysed and subjected to SDS-PAGE/Western blot analyses.
(§8) To test whether the reduction in mRNA NMT2 was due to chromatin silencing, we treated “normal” B cells (IM9) and malignant BL cells with suberoylanilide hydroxamic acid (SAHA) (also named vorinostat), a class I and class II histone deacetylase inhibitor, for 24 hours and monitored the levels of NMT1 and NMT2 by western blot. In particular, “Normal” B cells (IM9) and malignant BL cells (Ramos, BL2) treated with 1 μM SAHA (HDAC class I/II inhibitor) for 24 h. Cells were then lysed, subjected to SDS-PAGE and western blotting was performed with NMT1, NMT2, p21/WAF1 and GAPDH antibodies.
A general note: Immunoblotting shows a protein as a band on a membrane.

The test system of test [7] is NMT2 levels in BL cells (Ramos, BL2). The description is as above. In kind it is cell-based, human. The conditions noted are these: 1 μM, 24 h. Here is the method: as §7, §8
Test [8] concerns p21/WAF1 levels in IM9, Ramos, BL2 cells. The test is described as above. The format is cell-based, human. The conditions noted are these: all cells, 1 μM, 24 h. Here is the method: as §7, §8
For test [9], the system named is Mcl-1 levels in IM9, KMH2, Ramos, BL2 cells. Briefly: Western blot of protein levels after MG-132 treatment. The format is cell-based, human. The settings on record: all cell types, 10 μM, 5 h. Here is the method: (§9) IM9, KMH2, BL2 and Ramos cells were plated (3×10^6 cells per well in a 6-well dish) and treated with 10 μM MG-132 for 5 hours. Equal amount of DMSO was added to the control samples. Cells were then lysed and subjected to SDS-PAGE/Western blot analyses.
(§10) In this example, in FIG. 26, it is shown that proteosomal degradation is not the cause of NMT2 depletion in BL cells. In these experiments, “Normal” immortalized B lymphocytes (IM9) and malignant B lymphoma cells [Hodgkin's lymphoma (KMH2) and BL (Ramos, BL2)] treated with 10 μM of proteosomal inhibitor (MG-132) for 5 h. Western blotting was performed on cell lysates to monitor levels of NMT1, NMT2, Mcl-1, and GAPDH.
(§11) To investigate whether NMT2's degradation was increased as a result of a destabilizing mutation or the presence of an unknown factor that could destabilize NMT2 in cancer cells, we treated normal and malignant lymphocytes with the proteosomal degradation inhibitor MG-132 for 5 h. Cell lysates were subjected to western blotting to analyze the presence of NMT1, NMT2 and myeloid cell leukemia-1 protein (Mcl-1), which was used as a control to check the effectiveness of MG-132 since it is subject to proteosomal degradation.

The test system of test [10] is NMT2 levels in BL cells (Ramos, BL2). Described as above. In kind it is cell-based, human. The conditions noted are these: 10 μM, 5 h. The protocol:
as §9, §10, §11

Residues, ends and D or L forms follow the SMILES beside them. *: point of attachment. Cbz = O=C(OCc1ccccc1)*

T2 sequence (O60551 whole entry, the tested form may be a part): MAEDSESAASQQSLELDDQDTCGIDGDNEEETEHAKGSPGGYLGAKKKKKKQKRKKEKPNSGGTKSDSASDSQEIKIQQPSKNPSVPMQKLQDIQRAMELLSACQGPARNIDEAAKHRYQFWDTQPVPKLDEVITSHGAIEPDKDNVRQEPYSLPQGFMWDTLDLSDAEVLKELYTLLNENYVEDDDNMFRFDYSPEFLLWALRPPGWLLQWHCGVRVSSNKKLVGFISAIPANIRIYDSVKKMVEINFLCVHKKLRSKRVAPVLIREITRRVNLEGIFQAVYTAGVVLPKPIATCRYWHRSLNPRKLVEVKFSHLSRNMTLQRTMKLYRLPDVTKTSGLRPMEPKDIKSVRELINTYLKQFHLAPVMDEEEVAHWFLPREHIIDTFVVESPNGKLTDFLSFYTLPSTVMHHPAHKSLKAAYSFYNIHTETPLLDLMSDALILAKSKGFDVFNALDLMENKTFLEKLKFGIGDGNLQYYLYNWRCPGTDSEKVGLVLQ

Take “tris-dibenzylideneacetone-dipalladium [TrisDBA]”: the “sensitivity (residual viability)” value in test [1] and in [2] was “more sensitive” throughout. Also, the IC50 – broadly, the concentration needed to halve the response being measured – in test [3] (NMT1, in vitro) is approximately 2000 nM; in [4] (NMT2, in vitro), approximately 5 µM. The “inhibition of NMT activity” value in test [3] (purified recombinant NMT1) and in [4] (purified recombinant NMT2) was “inhibits NMT in vitro” each time. For the same compound, in [5], the “increase of survival by NMT2 transfection vs control cells transfected with empty plasmid vector” value worked out at 2.5 fold.
As for `O=C(CCCCCCC(=O)Nc1ccccc1)NO` [SAHA, suberoylanilide hydroxamic acid], the NMT1 levels result in test [6] is reported as “remained relatively unchanged”. In addition, in [7], the NMT2 levels entry is listed as “increased NMT2 levels”. In test [8], the p21/WAF1 levels entry is listed as “increased p21/WAF1 levels”.
As for `CC(C)C[C@@H](C=O)NC(=O)[C@H](CC(C)C)NC(=O)[C@H](CC(C)C)NC(=O)OCc1ccccc1` [MG-132] (Cbz-Leu-Leu-Leu-aldehyde), in [9], the Mcl-1 levels result is “increased levels of Mcl-1”. Moreover, the NMT2 levels entry in test [10] is “did not increase”.
